Results on two compounds are retold here after publication PMC10714399, “Open Source Antibiotics: Simple Diarylimidazoles Are Potent against Methicillin-Resistant Staphylococcus aureus” (ACS Infectious Diseases, 2023).

Series [1] is described as follows: Distribution coefficient estimation using chromatography, gLogD (Monash). The settings on record: gradient HPLC retention against standard compounds, pH 7.4. It counts as physicochemical. An outline of the steps:
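LogD at pH 7.4 was estimated by gradient HPLC, correlating compound retention with that of standard compounds of known partition coefficient, as a derivation of the Lombardo method.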

Series [2] concerns Staphylococcus aureus ATCC 43300 MRSA. Description: CO-ADD antibacterial assay (growth inhibition, MIC), MRSA. In kind it is cell-based. Conditions: read-out: MRSA MIC (CO-ADD). The procedure:
Hit Confirmation of active compounds by whole cell growth inhibition assays was conducted as an 8-point dose response to determine the Minimum Inhibitory Concentration (MIC), in duplicate (n=2). The inhibition of growth is measured against those microorganisms that […]
Included in the Hit Confirmation were 5 bacteria: Escherichia coli, Klebsiella pneumoniae, Acinetobacter baumannii, Pseudomonas aeruginosa and Staphylococcus aureus, and 2 fungi Candida albicans and Cryptococcus neoformans. […]
Assay Parameters Bacteria Fungi HEK293 Haemolysis […]
Duplicate (n=2) Duplicate (n=2) Duplicate (n=2) Duplicate (n=2)
QC Control MIC: Control MIC: Control CC50: Control HC10:
Non-Binding Non-Binding TC, 384-well Polypropylene
Plates Surface (NBS), Surface (NBS), black wall/clear 384-well and 384-well plate 384-well plate bottom polystyrene 384-
Cation-adjusted Yeast Nitrogen DMEM
Media Mueller Hinton Base supplemented 0.9% NaCl
Hit Confirmation outcomes are detailed in individual Project reports, personalised for each Project Submission for each CO-ADD user.
Please see your data sheet with file extension P0XXX_HC_data.xlsx, for example CO-ADD Project P0100, P0100_HC_data.xlsx
Study: HC_data ID: HC-Procedures & Materials
Date: Last updated June 2018 Confidential Page 3 of 11
(1 picture or pasted object on this page, not shown here)
Samples were provided by the collaborator and stored frozen at -20 °C. Samples were prepared in DMSO and water to a final testing concentration of 32 µg/mL or 20 µM (unless otherwise indicated in the data sheet) and serially diluted 1:2 fold for 8 times. Each sample concentration was prepared in 384-well plates, non-binding surface plate (NBS; Corning 3640) for each bacterial/fungal strain, tissue-culture treated (TC-treated; Corning 3712/3764) black for mammalian cell types and polypropylene 384-well (PP; Corning 3657) for haemolysis assays, all in duplicate (n=2), and keeping the final DMSO concentration to a maximum of 0.5%. All the sample preparation was done using liquid handling robots. […]
detailed in the Data sheet for the individual Project.
All bacteria were cultured in Cation-adjusted Mueller Hinton broth (CAMHB) at 37 °C overnight. A sample of each culture was then diluted 40-fold in fresh broth and incubated at 37 °C for 1.5-3 h. The resultant mid-log phase cultures were diluted (CFU/mL measured by OD600), then added to each well of the compound containing plates, giving a cell density of 5×10^5 CFU/mL and a total volume of 50 µL. All the plates were covered and incubated at 37 °C for 18 h without shaking.
Inhibition of bacterial growth was determined measuring absorbance at 600 nm (OD600), using a Tecan M1000 Pro monochromator plate reader. The percentage of growth inhibition was calculated for each well, using the negative control (media only) and positive control (bacteria without inhibitors) on the same plate as references.
The percentage of growth inhibition was calculated for each well, using the negative control (media only) and positive control (bacteria without inhibitors) on the same plate. The MIC […]
by an inhibition ≥ 80%. In addition, the maximal percentage of growth inhibition is reported as DMax, indicating any compounds with partial activity.
Date: Last updated June 2018 Confidential Page 5 of 11
Material Code Brand/Supplier Cat No.
Compound preparation plate, Polypropylene PP Corning 3364
Assay Plates – Antimicrobial
Non-binding surface NBS 384w Corning 3640
Assay Plates – Cytotoxicity
Tissue culture treated Black/Clear bottom 384w Corning 3712
Assay Plates - Haemolysis PP-Haem Corning 3657 […]
Growth media - bacteria CAMHB Bacto Laboratories 212322
Culture agar - fungi YPD Becton Dickinson 242720
Growth media - fungi YNB Becton Dickinson 233520
Resazurin Sigma-Aldrich R7017
Dulbecco's Modified Eagle Medium DMEM Life Technologies 11995-073
Foetal Bovine Serum FBS Bovogen FFBS-500
0.9% NaCl Saline Baxter AHF7124
Sample Name Sample ID MW Conc. Solvent Source […]

Series [3] in a line: Human liver microsome intrinsic clearance. In kind it is in vitro ADME. The settings on record: human liver microsomes, NEU.
Series [4] can be described thus: Mouse liver microsome (MLM) metabolic stability (UNC). In kind it is in vitro ADME. From the text:
Supplement id3c00286_si_002.xlsx, sheet "Series 2 Data" | column: MLM Clint (mL/min/kg) (UNC); MLM t1/2 (min) (UNC); MLM E (UNC)
(Liver microsomes are a subcellular fraction often used to study metabolism.)

Values after ≈ are worked out from the molar mass of the structure shown.

The term chromatographic logD denotes a lipophilicity value derived from retention on a column. A word on the MIC: it is the least concentration at which growth counts as inhibited. As usually defined, the CLint scaled is a measure of how fast metabolising enzymes remove a compound, apart from limits set by blood flow. A higher CLint scaled goes with rapid turnover. On to `c1ccc(-c2nc3n(c2-c2ccc4sccc4c2)CCC3)nc1` [OSA_000822], for which, in series [1], the chromatographic logD is 2.3. The minimal inhibitory concentration (MIC) in series [2] was determined as 2 µg/mL (≈ 6.3 µM). In series [3], the “HLM CLint (NEU)” value is listed as 61.5 uL/min/mg protein. Besides, the “MLM E (UNC)” value in series [4] (mouse liver microsomes) was 0.929. In series [4] (mouse, liver microsomes), the CLint scaled came out at 1170 mL/min/kg. Also, the half-life in series [4] (mouse, liver microsomes, read-out: MLM t1/2 (UNC)) turned out to be 4.8 min.
As for `c1ccc(-c2nc3n(c2-c2ccc4occc4c2)CCC3)nc1` [compound 821], in series [2], the MIC was 4 µg/mL (≈ 13.3 µM). Also, the microsomal CLint in series [3] (read-out: HLM CLint (NEU)) stood at 63.5 µL/min/mg.
